# Measurements taken from article PMC7806715, “Discovery of small molecules targeting the tandem tudor domain of the epigenetic factor UHRF1 using fragment-based ligand discovery” (Scientific Reports, 2021).
# Legend:
# [1] = biological target: T1, His6-TTD-PHD (aa 123–366) wild type vs. H3K9me3 peptide (Homo sapiens, UniProt Q96T88); assay: TR-FRET assay: His6-TTD-PHD wild type binding to H3K9me3 peptide; assay type: biochemical
# T1 construct: made in house; host or cells: Rosetta (DE3) E. coli, pMCSG7
# T1 sequence (Q96T88 123-366): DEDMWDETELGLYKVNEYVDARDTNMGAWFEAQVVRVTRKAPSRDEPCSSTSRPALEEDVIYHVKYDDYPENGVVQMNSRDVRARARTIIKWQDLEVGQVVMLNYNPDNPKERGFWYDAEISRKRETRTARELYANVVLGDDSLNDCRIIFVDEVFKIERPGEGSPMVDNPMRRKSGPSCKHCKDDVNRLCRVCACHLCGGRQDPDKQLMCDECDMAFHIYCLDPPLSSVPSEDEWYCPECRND
# Protocol: To test this hypothesis, we generated two TTD-PHD mutants: (1) S298D, which mimics phosphorylation at Ser298 and (2) RR295/296AA, which prevents Arg295 and Arg296 of the TTD-PHD linker from contacting the Arg binding cavity of TTD. […] The fragment screen was carried out on low volume 384-well white plates (Corning 4512) and the assay was performed at room temperature. The TR-FRET reagent mix contained 200 nM of biotinylated-H3K9me3 peptide (Anaspec), 250 nM of His6-TTD, 25 nM of streptavidin-d2 (CisBio), and 1 × anti-6His-Tb cryptate Gold (Cisbio) in TR-FRET buffer (50 mM sodium phosphate, pH 7, 150 mM NaCl, 1 mM DTT, and 0.1% Triton-X-100). During the screen, 5 μl of TR-FRET reagent mix was dispensed into each well, and 100 nl of chemical fragments stock (10 mM in DMSO) was added to each well by pintool using Tecan Freedom Evo liquid handler to make the final compound concentration 196 μM. After 1 h of incubation, the fluorescent signals at 665 nm and 620 nm of each plate were measured by the Tecan Infinite M1000 plate reader (excitation 340 nm, 60 μs lag time, and 500 μs integration time) and the TR-FRET signal was calculated by the ratio of 665 nm/620 nm fluorescent signal. For the fragment screen, on seven of the library plates there were 32-wells of DMSO control, while there were 8-wells of DMSO control in the last plate. The TR-FRET assays for the interactions between His6-TTD-PHD and His6-UHRF1-FL binding to biotinylated-H3K9me3 (1-20) peptide were similar to the assay for His6-TTD. The only difference was that the final concentration of […] assay, while the final concentration of His6-UHRF1-FL was 200 nM and biotin-H3K9me3 peptide was 100 nM for the His6-UHRF1-FL TR-FRET assay. The buffer pH was 7.5 for the His6-TTD-PHD and His6-UHRF1-FL assays. The His6-TTD and His6-TTD-PHD proteins (30 μM) were treated with PKA (P2645, Sigma) at 0.5 U/μl at 30 °C for 1 h in the reaction buffer (50 mM Tris, pH 7.5, 10 mM MgCl2, 0.02% Triton-X-100, 1 mM ATP, 1 mM DTT). The untreated sample was incubated at 30 °C for 1 h in same buffer condition without the addition of PKA. […]
# His6-TTD-PHD = biological target: T2, His6-TTD-PHD (Homo sapiens, UniProt Q96T88); assay: Intrinsic tryptophan fluorescence of His6-TTD-PHD; assay type: binding; conditions: 3.2 µM protein
# T2 construct: made in house; host or cells: Rosetta (DE3) E. coli, pMCSG7
# T2 sequence (Q96T88 123-366): T1 sequence (Q96T88 123-366)
# Protocol: The untagged TTD was diluted to 30 µM by buffer (50 mM sodium phosphate, pH 7.5, 150 mM NaCl) with or without 60 µM of H3K9me3 peptide (1–20) (Anaspec). 10 µL of diluted TTD was added into 384-well flat bottom black plate (Greiner, Cat# 781086). […] The final concentration of TTD was 15 µM and the H3K9me3 peptide (if included) was 30 µM. The experiment was performed at room temperature. […] After compound addition, the intrinsic tryptophan fluorescence was analyzed by the Tecan Infinite M1000 plate reader (excitation 280 nm, emission 334 nm). […] Tryptophan fluorescence monitors 2 , 4 - lutidine binding to His 6 - TTD, His 6 - TTD - PHD, and C - FLAG - UHRF 1 - FL . 2 , 4 - Lutidine dose - dependently quenched the tryptophan fluorescence of TTD (purple circle), while only started to show quenching effect against His 6 - TTD - PHD at mM concentration (blue diamond) . 2 , 4 - Lutidine had no effect on the fluorescence of C - FLAG - UHRF 1 - FL and the control USP 7 - UBL 1 / 2 protein . n= 3 for each data point . (Note : the standard deviation error bars are included, but the error values are often extremely small in this assay) . […]
smiles,measurement,setting,value
"Cc1ccnc(C)c1 [2,4-lutidine]",inhibition of His6-TTD-PHD interaction with H3K9me3 peptide (in words),"[1]; dose-response, side by side with His6-TTD",only weakly inhibits
same,effect of PKA treatment of His6-TTD-PHD on inhibition of H3K9me3 peptide binding (in words),[1]; protein treated with PKA and ATP 1 h at 30 °C,improves the ability
same,inhibition of binding to H3K9me3 peptide,"[1]; wild type TTD-PHD, 2.5 mM 2,4-lutidine",7.9%
same,quenching of His6-TTD-PHD tryptophan fluorescence (in words),His6-TTD-PHD,only at close to mM concentrations
